# Test results published in ChEMBL document CHEMBL5465560, “Selectivity Literature for EUbOPEN Chemogenomic Library” (2024).
# What was measured:
# [1] = system: Mast/stem cell growth factor receptor Kit (Homo sapiens), P10721 [A829P]; experiment: (§1) Selectivity interaction (KinomeScan (DiscoverX)) EUB0001049a KIT; conditions: at 1 µM
# [2] = system: Mast/stem cell growth factor receptor Kit (Homo sapiens), P10721 [D816H]; experiment: as §1; conditions: at 1 µM
# [3] = system: Mast/stem cell growth factor receptor Kit (Homo sapiens), P10721 [D816V]; experiment: as §1; conditions: at 1 µM
# [4] = system: Mast/stem cell growth factor receptor Kit (Homo sapiens), P10721 [L576P]; experiment: as §1; conditions: at 1 µM
# [5] = system: Mast/stem cell growth factor receptor Kit (Homo sapiens), P10721 [V559D,T670I]; experiment: as §1; conditions: at 1 µM
# Mast/stem cell growth factor receptor Kit (Homo sapiens), P10721 [V559D,T670I], sequence (P10721 whole entry V559D/T670I): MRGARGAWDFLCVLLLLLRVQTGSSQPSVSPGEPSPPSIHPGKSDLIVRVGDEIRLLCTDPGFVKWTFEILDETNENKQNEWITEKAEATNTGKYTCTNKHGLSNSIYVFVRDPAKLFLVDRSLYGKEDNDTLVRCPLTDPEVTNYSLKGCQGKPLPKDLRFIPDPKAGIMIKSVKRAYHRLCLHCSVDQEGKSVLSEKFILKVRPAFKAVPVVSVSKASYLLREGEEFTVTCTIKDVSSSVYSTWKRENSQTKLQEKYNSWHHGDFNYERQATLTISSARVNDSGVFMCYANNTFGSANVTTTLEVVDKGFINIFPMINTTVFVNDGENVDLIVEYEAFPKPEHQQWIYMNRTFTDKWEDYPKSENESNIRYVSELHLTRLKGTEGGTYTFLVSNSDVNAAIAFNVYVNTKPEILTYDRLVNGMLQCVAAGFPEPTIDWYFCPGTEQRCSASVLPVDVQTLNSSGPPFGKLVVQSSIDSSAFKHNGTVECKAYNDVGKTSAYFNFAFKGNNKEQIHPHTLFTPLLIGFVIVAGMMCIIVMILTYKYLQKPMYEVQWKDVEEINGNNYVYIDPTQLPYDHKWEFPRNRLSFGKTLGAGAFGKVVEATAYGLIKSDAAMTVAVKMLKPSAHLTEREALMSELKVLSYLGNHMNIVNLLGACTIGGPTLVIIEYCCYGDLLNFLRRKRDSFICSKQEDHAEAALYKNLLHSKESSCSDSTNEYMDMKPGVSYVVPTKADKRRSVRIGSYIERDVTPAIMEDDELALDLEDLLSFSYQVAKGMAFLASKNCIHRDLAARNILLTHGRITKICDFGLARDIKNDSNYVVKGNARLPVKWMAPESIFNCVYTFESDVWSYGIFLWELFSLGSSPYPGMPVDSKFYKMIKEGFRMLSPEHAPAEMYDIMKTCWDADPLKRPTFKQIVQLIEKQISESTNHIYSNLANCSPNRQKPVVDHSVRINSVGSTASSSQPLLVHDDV
# [6] = system: Mast/stem cell growth factor receptor Kit (Homo sapiens), P10721 [V559D,V654A]; experiment: as §1; conditions: at 1 µM
# Mast/stem cell growth factor receptor Kit (Homo sapiens), P10721 [V559D,V654A], sequence (P10721 whole entry V559D/V654A): as the sequence (P10721 whole entry V559D/T670I) above, with V654A, I670T counted along it
# [7] = system: Mast/stem cell growth factor receptor Kit (Homo sapiens), P10721 [V559D]; experiment: as §1; conditions: at 1 µM
# [8] = molecular target: Mast/stem cell growth factor receptor Kit (Homo sapiens, UniProt P10721); experiment: as §1; conditions: at 1 µM
# [9] = molecular target: Calcium/calmodulin-dependent protein kinase type II subunit alpha (Homo sapiens, UniProt Q9UQM7); experiment: Selectivity interaction (KinomeScan (DiscoverX)) EUB0000666a CAMK2A; conditions: at 10 µM
# [10] = molecular target: T1, SNF-related serine/threonine-protein kinase (Homo sapiens) (UniProt Q9NRH2); experiment: Selectivity interaction (KinomeScan (DiscoverX)) EUB0000229b SNRK; conditions: at 10 µM
# T1 sequence (whole entry): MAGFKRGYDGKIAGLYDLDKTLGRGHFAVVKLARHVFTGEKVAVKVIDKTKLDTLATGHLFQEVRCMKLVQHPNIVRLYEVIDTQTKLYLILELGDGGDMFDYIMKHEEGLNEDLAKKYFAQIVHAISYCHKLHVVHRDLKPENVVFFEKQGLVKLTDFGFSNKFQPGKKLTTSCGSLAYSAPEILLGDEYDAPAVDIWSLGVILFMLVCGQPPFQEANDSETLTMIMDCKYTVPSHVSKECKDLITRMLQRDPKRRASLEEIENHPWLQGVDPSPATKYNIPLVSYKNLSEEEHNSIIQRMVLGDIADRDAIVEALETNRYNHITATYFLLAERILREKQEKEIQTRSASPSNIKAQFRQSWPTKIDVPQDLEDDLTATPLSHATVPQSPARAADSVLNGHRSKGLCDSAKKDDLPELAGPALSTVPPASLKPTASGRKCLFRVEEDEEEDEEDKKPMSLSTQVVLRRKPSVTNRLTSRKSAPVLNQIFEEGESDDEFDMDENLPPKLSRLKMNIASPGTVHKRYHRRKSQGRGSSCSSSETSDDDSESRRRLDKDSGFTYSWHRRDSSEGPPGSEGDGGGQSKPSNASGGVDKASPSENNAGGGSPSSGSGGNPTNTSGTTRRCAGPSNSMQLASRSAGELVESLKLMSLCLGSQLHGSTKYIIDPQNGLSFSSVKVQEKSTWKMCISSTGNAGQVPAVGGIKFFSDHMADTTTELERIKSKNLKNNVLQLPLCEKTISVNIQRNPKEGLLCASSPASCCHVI
# [11] = molecular target: Phosphatidylinositol 4-kinase beta (Homo sapiens, UniProt Q9UBF8); experiment: Selectivity interaction (Kinase panel (KiNativ target engagement assay in Jurkat cells)) EUB0001635a PI4KB; type: cell-based; conditions: Selectivity number of off-targets 0.0, Selectivity number of targets 233.0, Source Knowledge https://www.sciencedirect.com/science/article/pii/S2451945619300674?via%3Dihub, at 1 µM
# Phosphatidylinositol 4-kinase beta, sequence (Q9UBF8 2-816 limits assumed): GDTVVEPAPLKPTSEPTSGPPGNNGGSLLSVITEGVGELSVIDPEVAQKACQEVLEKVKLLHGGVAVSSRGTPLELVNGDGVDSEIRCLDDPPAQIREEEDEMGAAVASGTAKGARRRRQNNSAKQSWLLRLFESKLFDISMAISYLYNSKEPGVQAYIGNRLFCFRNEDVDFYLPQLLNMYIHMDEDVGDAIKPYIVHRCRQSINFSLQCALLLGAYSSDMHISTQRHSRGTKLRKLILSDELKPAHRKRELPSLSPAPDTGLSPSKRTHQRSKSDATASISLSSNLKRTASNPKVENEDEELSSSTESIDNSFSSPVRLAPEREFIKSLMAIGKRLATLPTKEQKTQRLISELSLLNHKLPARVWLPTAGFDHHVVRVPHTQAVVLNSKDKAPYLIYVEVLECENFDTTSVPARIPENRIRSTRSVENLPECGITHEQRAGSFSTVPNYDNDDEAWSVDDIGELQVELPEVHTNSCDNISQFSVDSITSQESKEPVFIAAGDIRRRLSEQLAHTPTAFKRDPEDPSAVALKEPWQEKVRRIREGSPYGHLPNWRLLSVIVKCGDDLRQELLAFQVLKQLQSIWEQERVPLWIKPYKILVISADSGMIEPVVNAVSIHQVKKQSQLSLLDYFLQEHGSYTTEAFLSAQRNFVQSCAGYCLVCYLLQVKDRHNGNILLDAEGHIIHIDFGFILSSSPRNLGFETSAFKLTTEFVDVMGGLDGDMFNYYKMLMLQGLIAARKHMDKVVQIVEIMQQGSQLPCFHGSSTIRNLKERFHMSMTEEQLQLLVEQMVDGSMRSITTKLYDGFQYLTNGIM
# [12] = molecular target: Vascular endothelial growth factor receptor 2 (Homo sapiens, UniProt P35968); experiment: Selectivity interaction (Kinase panel (33PanQinase(R) Activity Assay)) EUB0000877a KDR
# [13] = molecular target: Tyrosine-protein kinase ABL1 (Homo sapiens, UniProt P00519); experiment: Selectivity interaction (Kinase panel (Invitrogen)) EUB0000639a ABL1; conditions: at 200 nM
# [14] = molecular target: Macrophage colony-stimulating factor 1 receptor (Homo sapiens) (UniProt P07333); experiment: Selectivity interaction (KinomeScan (DiscoverX)) EUB0000092b CSF1R; conditions: at 10 µM
# Macrophage colony-stimulating factor 1 receptor (Homo sapiens), sequence (P07333 whole entry): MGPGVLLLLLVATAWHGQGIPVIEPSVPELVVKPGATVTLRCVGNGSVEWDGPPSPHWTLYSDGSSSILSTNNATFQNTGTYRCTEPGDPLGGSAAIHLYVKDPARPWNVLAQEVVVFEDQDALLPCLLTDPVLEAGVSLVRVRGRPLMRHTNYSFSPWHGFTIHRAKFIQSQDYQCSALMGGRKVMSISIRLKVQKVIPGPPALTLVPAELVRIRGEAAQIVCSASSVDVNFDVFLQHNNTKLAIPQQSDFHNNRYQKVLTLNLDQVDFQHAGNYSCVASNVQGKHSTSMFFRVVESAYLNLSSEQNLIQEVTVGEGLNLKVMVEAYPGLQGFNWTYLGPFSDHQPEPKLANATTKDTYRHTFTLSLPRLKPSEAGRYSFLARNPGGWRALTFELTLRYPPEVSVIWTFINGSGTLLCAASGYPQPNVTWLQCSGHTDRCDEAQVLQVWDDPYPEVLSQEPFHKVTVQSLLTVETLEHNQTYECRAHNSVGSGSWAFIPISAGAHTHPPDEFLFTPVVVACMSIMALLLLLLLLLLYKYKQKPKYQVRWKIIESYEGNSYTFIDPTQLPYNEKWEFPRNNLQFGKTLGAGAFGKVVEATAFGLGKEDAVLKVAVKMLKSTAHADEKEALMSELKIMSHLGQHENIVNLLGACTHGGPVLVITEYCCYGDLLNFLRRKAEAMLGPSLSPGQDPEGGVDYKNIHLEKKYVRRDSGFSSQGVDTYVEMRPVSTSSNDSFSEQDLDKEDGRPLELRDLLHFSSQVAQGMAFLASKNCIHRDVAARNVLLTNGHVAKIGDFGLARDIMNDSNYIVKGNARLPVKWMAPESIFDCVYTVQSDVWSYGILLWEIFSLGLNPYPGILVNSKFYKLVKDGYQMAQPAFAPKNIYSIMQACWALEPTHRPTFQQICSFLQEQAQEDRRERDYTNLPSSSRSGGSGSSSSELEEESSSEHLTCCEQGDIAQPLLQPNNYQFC
# [15] = molecular target: Myosin light chain kinase, smooth muscle (Homo sapiens, UniProt Q15746); conditions: at 10 µM
# [16] = Selectivity interaction (KinomeScan (DiscoverX)) EUB0001619a CDK2H; conditions: at 1 µM
# [17] = molecular target: Serine/threonine-protein kinase pim-3 (Homo sapiens) (UniProt Q86V86); experiment: Selectivity interaction (KinomeScan (DiscoverX)) EUB0001619a PIM3; conditions: at 1 µM
# [18] = molecular target: T2, NUAK family SNF1-like kinase 2 (Homo sapiens) (UniProt Q9H093); experiment: Selectivity interaction (KinomeScan (DiscoverX)) EUB0000655a NUAK2; conditions: at 10 µM
# T2 sequence (whole entry): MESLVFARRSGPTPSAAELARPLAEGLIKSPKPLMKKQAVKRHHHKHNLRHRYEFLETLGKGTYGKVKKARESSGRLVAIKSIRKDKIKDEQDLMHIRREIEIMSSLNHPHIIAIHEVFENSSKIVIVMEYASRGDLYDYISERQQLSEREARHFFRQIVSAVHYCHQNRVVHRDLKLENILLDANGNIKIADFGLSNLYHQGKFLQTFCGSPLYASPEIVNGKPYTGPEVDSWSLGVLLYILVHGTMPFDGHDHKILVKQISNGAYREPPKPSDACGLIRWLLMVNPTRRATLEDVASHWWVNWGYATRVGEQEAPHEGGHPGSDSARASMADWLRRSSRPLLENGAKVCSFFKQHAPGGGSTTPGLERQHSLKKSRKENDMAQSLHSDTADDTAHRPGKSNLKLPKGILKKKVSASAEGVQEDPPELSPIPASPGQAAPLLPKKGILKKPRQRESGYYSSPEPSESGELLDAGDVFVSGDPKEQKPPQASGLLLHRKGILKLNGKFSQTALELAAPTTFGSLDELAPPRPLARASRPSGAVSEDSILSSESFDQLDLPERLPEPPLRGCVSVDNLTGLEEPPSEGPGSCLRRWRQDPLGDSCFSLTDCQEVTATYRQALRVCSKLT
# [19] = molecular target: Epithelial discoidin domain-containing receptor 1 (Homo sapiens) (UniProt Q08345); experiment: Selectivity interaction (KinomeScan (DiscoverX)) EUB0000607a DDR1; conditions: at 10 µM
# [20] = molecular target: Serine/threonine-protein kinase Nek7 (Homo sapiens) (UniProt Q8TDX7); experiment: Selectivity interaction (ProQinase) EUB0000171b NEK7
# Serine/threonine-protein kinase Nek7 (Homo sapiens), sequence (Q8TDX7 whole entry, looked up): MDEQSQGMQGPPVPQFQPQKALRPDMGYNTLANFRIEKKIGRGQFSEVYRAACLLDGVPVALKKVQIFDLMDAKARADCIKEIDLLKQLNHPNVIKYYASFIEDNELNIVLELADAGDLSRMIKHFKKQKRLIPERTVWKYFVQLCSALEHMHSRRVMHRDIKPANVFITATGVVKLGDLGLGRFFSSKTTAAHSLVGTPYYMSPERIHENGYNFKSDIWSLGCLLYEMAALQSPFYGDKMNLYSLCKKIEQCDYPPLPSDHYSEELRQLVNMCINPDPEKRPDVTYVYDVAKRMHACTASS
# Mast/stem cell growth factor receptor Kit (Homo sapiens), P10721 [A829P], sequence (P10721 whole entry A829P): as the sequence (P10721 whole entry V559D/T670I) above, with D559V, I670T, A829P counted along it
smiles,measurement,setting,value
COc1cc(Nc2nc(C)cc(-c3cnn4nc(OC)ccc34)n2)cc(C(F)(F)F)c1,% of control,[1],84%
same,% of control,[2],66%
same,% of control,[3],96%
same,% of control,[4],100%
same,% of control,[5],85%
same,% of control,[6],62%
same,% of control,[7],80%
same,% of control,[8],89%
O=C(NOC[C@H](O)CO)c1ccc(F)c(F)c1Nc1ccc(I)cc1F,% of control,[9],100%
COc1cc(N(C)c2ccnc3ccc(C(F)(F)F)cc23)cc(OC)c1OC,% binding,[10],53%
C=CC(=O)Nc1ccc(C(=O)Nc2[nH]nc3c2CN(C(=O)N[C@H](CN(C)C)c2ccccc2)C3(C)C)cc1,% of engagement,[11],-4.1%
CCC(=O)N1CC[C@H](Nc2ncnc3c2CN(c2cnc(OC)c(C(F)(F)F)c2)CC3)C1 [LENIOLISIB],IC50,[12],> 10 µM
CC[C@@H]1[C@H](F)C(=O)N[C@@H]1COc1nccc2cc(C(N)=O)c(OC)cc12 [ZIMLOVISERTIB],% of inhibition,[13],2.34%
CCC(=O)N1CCN(c2ccc(-n3c(=O)ccc4cnc5ccc(-c6cnc7ccccc7c6)cc5c43)cc2C(F)(F)F)CC1,% of control,[14],24%
Cc1cc([C@@H](C)Nc2ccccc2C(=O)O)c2nc(N3CCOCC3)cc(=O)n2c1 [AZD-6482],% of control,[15],100%
N#Cc1cccc(-c2c[nH]c3ncnc(N4CCOCC4)c23)c1,% of control,[16],100%
same,% of control,[17],100%
CN(C)CCOc1ccc(-c2nc(-c3ccncc3)c(-c3ccc4c(c3)CC/C4=N\O)[nH]2)cc1,% of control,[18],95%
CNC(=O)Nc1ccc(-c2nc(N3CC4CCC(C3)O4)c3cnn(C4CCC5(CC4)OCCO5)c3n2)cc1,% of control,[19],66%
C=CC(=O)Nc1cccc(C(=O)Nc2ccc(Nc3cc(-c4[nH]c(SC)nc4C)ccn3)cc2)c1,% of control,[20]; at 1 µM,91%
same,% of control,[20]; at 5 µM,95%
